Reference: the supplement of paper PMC10307832

These cell lines were tested with C[C@]1(c2nc3c(C(N)=O)cccc3[nH]2)CCCN1 [Veliparib] (assay: relative viability (nuclei count vs DMSO), 5 days (fraction); higher = more cells survive). Conditions: 2 µM.
How it was run: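 After an overnight hold at 37 °C, lung cancer cell lines in 1536-well plates were pinned with five library-drug doses (not always all listed), each √10 from the next, on vehicle-anchored plates. The cells stayed 5 days without fresh medium, then a one-step fix, permeabilisation and Hoechst stain preceded 4× imaging and MetaXpress nuclear counts. A plate passed only with control CV under 25% and at least one doubling. Viability is the median, over plates, of treated-well nuclei relative to vehicle-well nuclei.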

With NCI-H322M as the cell line, how does the relative viability read?
The relative viability was 0.903.

These cell lines were tested with COC1=CC=C(C=C1)CN2C=CC3=C2C=C(C=C3)C(=O)NO + CS(=O)(=O)N1CCN(Cc2cc3nc(-c4cccc5[nH]ncc45)nc(N4CCOCC4)c3s2)CC1 [Pictilisib] (partner 1 µM) (assay: relative viability (nuclei count vs DMSO), 5 days (fraction); higher = more cells survive). Conditions: first compound 0.08 µM.
How it was run: (§1)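 Values are medians from duplicate plates. Each reflects relative viability, defined as the nuclei count of treated wells over that of vehicle wells. Lung cancer cell lines in 1536-well plates were pin-tool dosed one day after seeding with one drug alone or with a fixed anchor-drug dose plus five library-drug doses (not always all listed) in √10 steps, then fixed, stained and imaged at 4× after 5 days.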

How did the relative viability turn out when NCI-H1793 was run?
The relative viability was 0.17.

With 201T as the cell line, how does the relative viability read?
The relative viability was 0.687.

With NCI-H2228 as the cell line, how does the relative viability read?
The relative viability was 0.375.

Which relative viability does the source give for LOU-NH91 here?
The relative viability was 0.45.

How did the relative viability turn out when NCI-H1666 was run?
Its relative viability is 0.523.

NCI-H650 was tested. Which relative viability did it give?
Its relative viability is 0.901.

Calu-6 was tested. Which relative viability did it give?
The relative viability was 0.426.

NCI-H1993 was tested. Which relative viability did it give?
Its relative viability is 0.717.

How did the relative viability turn out when HCC-44 was run?
The relative viability was 0.547.

With NCI-H2126 as the cell line, how does the relative viability read?
Its relative viability is 0.479.

Which relative viability does the source give for NCI-H1755 here?
The relative viability was 0.267.

With PC-3 [JPC-3] as the cell line, how does the relative viability read?
Its relative viability is 0.781.

NCI-H1792 was tested. Which relative viability did it give?
Its relative viability is 0.301.

Which relative viability does the source give for NCI-H2087 here?
Its relative viability is 0.497.

HOP-62 was tested. Which relative viability did it give?
Its relative viability is 0.249.

How did the relative viability turn out when NCI-H2170 was run?
Its relative viability is 0.271.

How did the relative viability turn out when NCI-H2347 was run?
The relative viability was 0.494.

How did the relative viability turn out when HARA was run?
Its relative viability is 0.467.

For NCI-H1355, which relative viability is on record?
The relative viability was 0.156.

For NCI-H1915, which relative viability is on record?
Its relative viability is 0.62.

SK-MES-1 was tested. Which relative viability did it give?
The relative viability was 0.343.

Which relative viability does the source give for NCI-H23 here?
The relative viability was 0.275.

For CAL-12T, which relative viability is on record?
Its relative viability is 0.244.

HCC-366 was tested. Which relative viability did it give?
Its relative viability is 0.139.

Same assay, conditions: first compound 0.253 µM

With NCI-H1793 as the cell line, how does the relative viability read?
The relative viability was 0.239.

With 201T as the cell line, how does the relative viability read?
Its relative viability is 0.716.

With NCI-H2228 as the cell line, how does the relative viability read?
The relative viability was 0.326.

Which relative viability does the source give for LOU-NH91 here?
The relative viability was 0.53.

NCI-H1666 was tested. Which relative viability did it give?
The relative viability was 0.49.

NCI-H650 was tested. Which relative viability did it give?
The relative viability was 0.895.

How did the relative viability turn out when NCI-H1703 was run?
Its relative viability is 0.259.

Which relative viability does the source give for Calu-6 here?
Its relative viability is 0.946.

With NCI-H1993 as the cell line, how does the relative viability read?
The relative viability was 0.0552.

Which relative viability does the source give for HCC-44 here?
The relative viability was 0.746.

NCI-H647 was tested. Which relative viability did it give?
Its relative viability is 0.42.

With NCI-H2126 as the cell line, how does the relative viability read?
Its relative viability is 0.496.

How did the relative viability turn out when NCI-H1755 was run?
The relative viability was 0.458.

PC-3 [JPC-3] was tested. Which relative viability did it give?
The relative viability was 0.713.

Which relative viability does the source give for NCI-H1792 here?
Its relative viability is 0.314.

NCI-H2087 was tested. Which relative viability did it give?
The relative viability was 0.936.

With HOP-62 as the cell line, how does the relative viability read?
Its relative viability is 0.885.

With NCI-H2170 as the cell line, how does the relative viability read?
Its relative viability is 0.393.

Which relative viability does the source give for NCI-H2347 here?
Its relative viability is 0.652.

With HARA as the cell line, how does the relative viability read?
Its relative viability is 0.492.

NCI-H1355 was tested. Which relative viability did it give?
Its relative viability is 0.501.

Which relative viability does the source give for NCI-H1915 here?
The relative viability was 0.997.

Which relative viability does the source give for SK-MES-1 here?
The relative viability was 0.384.

NCI-H23 was tested. Which relative viability did it give?
The relative viability was 0.538.

How did the relative viability turn out when NCI-H661 was run?
The relative viability was 0.358.

NCI-H1944 was tested. Which relative viability did it give?
Its relative viability is 0.37.

For HCC-366, which relative viability is on record?
The relative viability was 0.165.

NCI-H322M was tested. Which relative viability did it give?
Its relative viability is 0.542.

Same assay, conditions: first compound 0.8 µM

For NCI-H1793, which relative viability is on record?
The relative viability was 0.395.

201T was tested. Which relative viability did it give?
The relative viability was 0.752.

Which relative viability does the source give for NCI-H2228 here?
Its relative viability is 0.536.

For LOU-NH91, which relative viability is on record?
The relative viability was 0.522.

Which relative viability does the source give for NCI-H1666 here?
Its relative viability is 0.47.

Which relative viability does the source give for NCI-H650 here?
The relative viability was 0.856.

With NCI-H1703 as the cell line, how does the relative viability read?
Its relative viability is 0.221.

With Calu-6 as the cell line, how does the relative viability read?
Its relative viability is 0.981.

How did the relative viability turn out when NCI-H1993 was run?
The relative viability was 0.772.

HCC-44 was tested. Which relative viability did it give?
Its relative viability is 0.616.

For NCI-H647, which relative viability is on record?
Its relative viability is 0.523.

Which relative viability does the source give for NCI-H2126 here?
Its relative viability is 0.53.

For NCI-H1755, which relative viability is on record?
The relative viability was 0.51.

How did the relative viability turn out when PC-3 [JPC-3] was run?
Its relative viability is 0.747.

With NCI-H1792 as the cell line, how does the relative viability read?
The relative viability was 0.297.

For NCI-H2087, which relative viability is on record?
The relative viability was 0.776.

For HOP-62, which relative viability is on record?
Its relative viability is 0.988.

NCI-H2170 was tested. Which relative viability did it give?
The relative viability was 0.347.

With NCI-H2347 as the cell line, how does the relative viability read?
Its relative viability is 0.596.

HARA was tested. Which relative viability did it give?
The relative viability was 0.403.

How did the relative viability turn out when NCI-H1355 was run?
Its relative viability is 0.489.

How did the relative viability turn out when NCI-H1915 was run?
Its relative viability is 1.08.

For SK-MES-1, which relative viability is on record?
Its relative viability is 0.368.

Which relative viability does the source give for NCI-H23 here?
Its relative viability is 0.49.

Which relative viability does the source give for NCI-H661 here?
The relative viability was 0.35.

Which relative viability does the source give for CAL-12T here?
Its relative viability is 0.527.

NCI-H1944 was tested. Which relative viability did it give?
Its relative viability is 0.317.

How did the relative viability turn out when HCC-366 was run?
Its relative viability is 0.137.

Which relative viability does the source give for NCI-H322M here?
Its relative viability is 0.544.

Same assay, conditions: first compound 2.53 µM

NCI-H1793 was tested. Which relative viability did it give?
Its relative viability is 0.267.

With 201T as the cell line, how does the relative viability read?
The relative viability was 0.725.

How did the relative viability turn out when NCI-H2228 was run?
The relative viability was 0.46.

How did the relative viability turn out when LOU-NH91 was run?
The relative viability was 0.528.

For NCI-H1666, which relative viability is on record?
Its relative viability is 0.525.

How did the relative viability turn out when NCI-H650 was run?
Its relative viability is 0.861.

Which relative viability does the source give for NCI-H1703 here?
Its relative viability is 0.256.

Calu-6 was tested. Which relative viability did it give?
The relative viability was 0.969.

NCI-H1993 was tested. Which relative viability did it give?
The relative viability was 0.837.

Which relative viability does the source give for HCC-44 here?
Its relative viability is 0.568.

How did the relative viability turn out when NCI-H647 was run?
The relative viability was 0.373.

With NCI-H2126 as the cell line, how does the relative viability read?
The relative viability was 0.558.

Which relative viability does the source give for NCI-H1755 here?
Its relative viability is 0.383.

With PC-3 [JPC-3] as the cell line, how does the relative viability read?
Its relative viability is 0.805.

For NCI-H1792, which relative viability is on record?
The relative viability was 0.326.

How did the relative viability turn out when NCI-H2087 was run?
The relative viability was 0.976.

With HOP-62 as the cell line, how does the relative viability read?
Its relative viability is 0.908.

How did the relative viability turn out when NCI-H2170 was run?
The relative viability was 0.27.

HARA was tested. Which relative viability did it give?
Its relative viability is 0.43.

Which relative viability does the source give for NCI-H1355 here?
Its relative viability is 0.498.

Which relative viability does the source give for NCI-H1915 here?
Its relative viability is 0.973.

How did the relative viability turn out when SK-MES-1 was run?
The relative viability was 0.36.

How did the relative viability turn out when NCI-H23 was run?
The relative viability was 0.559.

With NCI-H661 as the cell line, how does the relative viability read?
The relative viability was 0.375.

How did the relative viability turn out when CAL-12T was run?
The relative viability was 0.377.

With NCI-H1944 as the cell line, how does the relative viability read?
The relative viability was 0.357.

With HCC-366 as the cell line, how does the relative viability read?
The relative viability was 0.136.

For NCI-H322M, which relative viability is on record?
The relative viability was 0.501.

Same assay, conditions: first compound 8 µM

Which relative viability does the source give for NCI-H1793 here?
Its relative viability is 0.335.

Which relative viability does the source give for 201T here?
Its relative viability is 0.683.

NCI-H2228 was tested. Which relative viability did it give?
The relative viability was 0.251.

Which relative viability does the source give for LOU-NH91 here?
The relative viability was 0.497.

Which relative viability does the source give for NCI-H1666 here?
Its relative viability is 0.525.

Which relative viability does the source give for NCI-H650 here?
The relative viability was 0.829.

NCI-H1703 was tested. Which relative viability did it give?
The relative viability was 0.147.

How did the relative viability turn out when Calu-6 was run?
The relative viability was 0.826.

With NCI-H1993 as the cell line, how does the relative viability read?
Its relative viability is 0.756.

How did the relative viability turn out when HCC-44 was run?
Its relative viability is 0.547.

How did the relative viability turn out when NCI-H647 was run?
Its relative viability is 0.308.

Which relative viability does the source give for NCI-H2126 here?
Its relative viability is 0.443.

With NCI-H1755 as the cell line, how does the relative viability read?
Its relative viability is 0.363.

Which relative viability does the source give for PC-3 [JPC-3] here?
Its relative viability is 0.718.

For NCI-H1792, which relative viability is on record?
Its relative viability is 0.209.

With NCI-H2087 as the cell line, how does the relative viability read?
The relative viability was 0.674.

With HOP-62 as the cell line, how does the relative viability read?
Its relative viability is 0.396.

How did the relative viability turn out when NCI-H2170 was run?
The relative viability was 0.279.

How did the relative viability turn out when NCI-H2347 was run?
Its relative viability is 0.462.

HARA was tested. Which relative viability did it give?
Its relative viability is 0.33.

Which relative viability does the source give for NCI-H1355 here?
The relative viability was 0.372.

Which relative viability does the source give for NCI-H1915 here?
Its relative viability is 0.735.

With SK-MES-1 as the cell line, how does the relative viability read?
The relative viability was 0.332.

For NCI-H23, which relative viability is on record?
Its relative viability is 0.349.

With NCI-H661 as the cell line, how does the relative viability read?
The relative viability was 0.318.

Which relative viability does the source give for CAL-12T here?
The relative viability was 0.283.

Which relative viability does the source give for NCI-H1944 here?
Its relative viability is 0.322.

With HCC-366 as the cell line, how does the relative viability read?
Its relative viability is 0.15.

Which relative viability does the source give for NCI-H322M here?
The relative viability was 0.45.

What follows are cell lines tested with C[C@]1(c2nc3c(C(N)=O)cccc3[nH]2)CCCN1 [Veliparib] + CS(=O)(=O)CCNCc1ccc(-c2ccc3ncnc(Nc4ccc(OCc5cccc(F)c5)c(Cl)c4)c3c2)o1 [Lapatinib] (partner 2 µM) in the same assay as above. Conditions: first compound 0.02 µM.
How it was run: as §1

NCI-H1793 was tested. Which relative viability did it give?
Its relative viability is 0.548.

How did the relative viability turn out when 201T was run?
Its relative viability is 1.
